Experimental data reported in US11464802B2, “3-substituted piperidine compounds for Cbl-b inhibition, and use thereof” (Nurix Therapeutics, Inc., priority 2019, dated 2022).

Key:
Cbl-b [1] = molecular target: T1, Cbl-b (Homo sapiens (Human), UniProt Q13191); assay: Cbl-b displacement assay (Cbl-b inhibition assay), TR-FRET probe displacement, Biological Example 1; type: binding; settings: 0.5 nM Cbl-b final concentration (High); read-out: Cbl-b activity IC50 (High)
Summary of the method: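 N-terminally Avitagged, biotinylated truncated Cbl-b (0.5 nM "High" or 0.125 nM "Low", final) pre-incubated 1 h at room temperature with compound (1% DMSO) in HEPES pH 7.5 buffer. Then 150 nM BODIPY FL probe (~EC40) plus 2 nM streptavidin-terbium for 1 h; TR-FRET read at 520/620 nm.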

Cbl-b [2] = molecular target: T1, Cbl-b; assay: Cbl-b displacement assay (Cbl-b inhibition assay), Biological Example 12; type: binding; settings: 0.125 nM Cbl-b final concentration (Low); Table 12-1; read-out: Cbl-b IC50 (Low)
Summary of the method: (§1)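 Biotinylated Avitag-Cbl-b (residues 36-427) at 0.5 nM ("High") or 0.125 nM ("Low") final was preincubated 1 h at room temperature with compound (1% DMSO) in 20 mM HEPES pH 7.5, 150 mM NaCl, 0.01% Triton X-100, 0.01% BSA, 0.5 mM TCEP. Then 150 nM BODIPY FL inhibitor probe (~EC40) plus 2 nM streptavidin-terbium, 1 h; TR-FRET 520/620 read, IC50 derived.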

[3] = tested on: primary human total T-cells; assay: Primary human total T-cell activation: IL-2 secretion, Biological Example 13; type: cell-based; settings: 48 hours, fold change over baseline; for fold induction at 1 µM: inhibitor 1 μM
[4] = tested on: primary human total T-cells; assay: Primary human total T-cell activation: IL-2 secretion, Biological Example 2; type: cell-based; settings: 48 hours, fold change over baseline; for fold induction at 1 µM: inhibitor 1 μM
[5] = tested on: primary human total T-cells; assay: Primary human total T-cell activation: CD25 surface staining, Biological Example 2; type: cell-based; settings: 48 hours, fold change over baseline; for fold induction at 1 µM: inhibitor 1 μM
TC-1 cells = assay: Compound 8 with HPV16 vaccine in TC-1 syngeneic mouse model, Biological Example 16; type: in vivo; settings: TC-1 tumor-bearing mice
Procedure: Mice were implanted with 50,000 TC-1 cells/mouse subcutaneously into the right flank (at Day Zero (D0)). Thirteen days later (D13), when tumors measured approximately 50-100 mm^3, mice from appropriate groups (10 mice per group) were injected with HPV16 vaccine (s.c., total 2 doses, at D13 and Day 20 (D20)). […] Mice were euthanized when tumor exceeded 1500-2000 mm^3, according to IACUC guidelines. Survival was compared using GraphPad Prism using log-rank (Mantel-Cox) test. **=p<0.005 of treatment vs. Vehicle+Vaccine control group at Day 61.
TC-1 cells were derived by stable transfection of mouse lung epithelial cells with human papillomavirus strain 16 (HPV16) early proteins 6 and 7 (E6 and E7) and activated h-ras oncogene. Cells were obtained from Dr. T-C Wu (Johns Hopkins University). (Lin K Y, Guarnieri F G, Staveley-O'Carroll K F, Levitsky H I, August J T, Pardoll D M, et al. Treatment of established tumors with a novel vaccine that enhances major histocompatibility class II presentation of tumor antigen. Cancer Res 1996; 56:21-6).
The HPV16 vaccine was prepared as follows: The CTL epitope from HPV16 E749-57 (9 amino acid (aa) peptide, […], 100 μg/mouse, SEQ ID NO: 2) was mixed with synthetic T helper epitope PADRE (13 aa peptide, aK-Cha-[…]a, SEQ ID NO: 3, where “a” is D alanine and Cha is L-cyclohexylalanine, 20 ug/mouse) and with QuilA adjuvant (20 ug/mouse).

[6] = tested on: primary human total T-cells; assay: Primary human total T-cell activation: CD25 surface staining, Biological Example 9; type: cell-based; settings: 48 hours, fold change over baseline; for fold induction at 1 µM: inhibitor 1 μM
Cbl-b [7] = molecular target: T1, Cbl-b; assay: Cbl-b displacement assay (Cbl-b inhibition assay), Biological Example 8; type: binding; settings: 0.125 nM Cbl-b final concentration (Low); Table 8-1; read-out: Cbl-b IC50 (Low)
Summary of the method: as §1

[8] = anti-CD3/anti-CD28 co-stimulation, inhibitor 0.3 μM

T1 sequence (Q13191 36-427): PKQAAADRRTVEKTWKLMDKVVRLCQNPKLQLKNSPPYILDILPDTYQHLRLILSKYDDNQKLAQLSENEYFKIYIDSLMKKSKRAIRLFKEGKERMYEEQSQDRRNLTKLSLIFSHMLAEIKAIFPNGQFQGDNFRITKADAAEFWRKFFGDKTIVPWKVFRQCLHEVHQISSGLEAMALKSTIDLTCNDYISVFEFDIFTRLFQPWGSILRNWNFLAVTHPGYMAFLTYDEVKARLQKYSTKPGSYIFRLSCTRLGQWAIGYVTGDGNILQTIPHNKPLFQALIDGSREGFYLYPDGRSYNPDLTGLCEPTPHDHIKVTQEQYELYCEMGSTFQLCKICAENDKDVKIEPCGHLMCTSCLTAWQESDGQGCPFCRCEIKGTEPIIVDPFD

Question: What does the source list for `C[C@@H]1CN(Cc2cc3c(c(C(F)(F)F)c2)CN(c2cccc(C4(Cc5nncn5C)COC4)c2)C3=O)CCC1(F)F` [Compound 8, (R)-6-((4,4-difluoro-3-methylpiperidin-1-yl)methyl)-2-(3-(3-((4-methyl-4H-1,2,4-triazol-3-yl)methyl)oxetan-3-yl)phenyl)-4-(trifluoromethyl)isoindolin-1-one]?
Answer: IC50 (Cbl-b [1]): 5.1 to 100 nM; IC50 (Cbl-b [2]): < 1 nM; fold induction at 0.3 µM ([3]; anti-CD3/anti-CD28 co-stimulation, inhibitor 0.3 μM, Table 13-1): > 15; fold induction at 1 µM ([3]; anti-CD3/anti-CD28 co-stimulation, Table 13-1, read-out: IL-2 secretion CD3/CD28 1 μM): > 15; fold induction at 1 µM ([3]; anti-CD3 alone, Table 13-1, read-out: IL-2 secretion CD3 1 μM): > 0.66; fold induction at 3 µM ([3]; anti-CD3 alone, inhibitor 3 μM, Table 13-1): > 0.66; fold induction at 0.3 µM [4, 8]: > 15; fold induction at 1 µM ([4]; anti-CD3/anti-CD28 co-stimulation, read-out: IL-2 secretion CD3/CD28 1 μM): > 15; fold induction at 1 µM ([4]; anti-CD3 alone, read-out: IL-2 secretion CD3 1 μM): 0.34 to 0.66; fold induction at 3 µM ([4]; anti-CD3 alone, inhibitor 3 μM): 0.34 to 0.66; fold induction at 0.3 µM [5, 8]: 1.25 to 1.39; fold induction at 1 µM ([5]; anti-CD3/anti-CD28 co-stimulation, read-out: CD25 staining CD3/CD28 1 μM): 1.25 to 1.39; fold induction at 1 µM ([5]; anti-CD3 alone, read-out: CD25 staining CD3 1 μM): > 1.14; fold induction at 3 µM ([5]; anti-CD3 alone, inhibitor 3 μM): > 1.14; tumor growth (TC-1 cells; Compound 8 orally D13 to D35, HPV16 vaccine s.c. D13 and D20): significant slowdown of tumor progression; survival (TC-1 cells; Compound 8 orally D13 to D35 with HPV16 vaccine s.c. D13 and D20, vs. Vehicle+Vaccine): prolonged survival; fold induction at 0.3 µM ([6]; anti-CD3/anti-CD28 co-stimulation, inhibitor 0.3 μM, Table 9-1): > 1.39; fold induction at 1 µM ([6]; anti-CD3/anti-CD28 co-stimulation, Table 9-1, read-out: CD25 staining CD3/CD28 1 μM): > 1.39; fold induction at 1 µM ([6]; anti-CD3 alone, Table 9-1, read-out: CD25 staining CD3 1 μM): > 1.14; fold induction at 3 µM ([6]; anti-CD3 alone, inhibitor 3 μM, Table 9-1): > 1.14; IC50 (Cbl-b [7]): < 1 nM
